The source of these data is US20220033430A1, “ORALLY ACTIVE PRODRUG OF GEMCITABINE” (TNT Medical Corporation, priority 2018, published 2022).

“Also recorded” adds a separate entry of the source.

Series [1] can be described thus: Water solubility observed during formulation for the PK study. It counts as physicochemical. Particulars: compared with LY2334737.
A short description of series [2]: Mice PK study: plasma active metabolite Gemcitabine after dosing of prodrug. Type of series: in vivo, male CD1 mouse. Particulars: single dose 10, 150, 300 mg/kg. The protocol: The pharmacokinetics of compounds were evaluated in male CD1 mouse via Intravenous and Oral Administration. The iv dose was administered as a slow bolus in the Jugular vein, and oral doses were administered by gavage. The formulation is 2.5% DMSO, 10% EtOH, 20% Cremphor EL, 67.5% D5W. The PK time point 5 min, 15, 30 min, 1, 2, 4, 6, 8 hours post dose. Approximately 0.03 mL blood will be collected at each time point. Keep blood at room temperature and collect plasma within 15 min by centrifugation at 4000 g for 5 minutes in a 4° C. centrifuge. Plasma samples will be stored in polypropylene tubes. The plasma samples will be stored in a freezer at −75±15° C. prior to analysis. Concentrations of compounds and the active metaboliste Gemcitabine in the plasma samples will be analyzed using a LC-MS/MS method. WinNonlin (Phoenix, version 6.1) or other similar software will be used for pharmacokinetic calculations. The following pharmacokinetic parameters will be calculated, whenever possible from the plasma concentration versus time data: IV administration: C0, CL, Vd, T1/2, AUCinf, AUClast, MRT, Number of Points for Regression; PO administration: Cmax, Tmax, T1/2, AUCinf, AUClast, F %, Number of Points for Regression. The pharmacokinetic data will be described using descriptive statistics such as mean, standard deviation. […]

The subject of series [3] is ovarian cancer A2780 xenograft model. Nature of the series: In vivo xenograft study, ovarian cancer A2780 model. Also on record: species or system mice. Particulars: for Tumor volume: A2780 xenograft. An excerpt:
Compound of Example 2 was selected for in vivo studies in the ovarian cancer A2780 xenograft model. Typically, athymic nude mice (CD-1 nu/nu) or SCID mice are obtained at age 6-8 weeks from vendors and acclimated for a minimum 7-day period. The cancer cells are then implanted into the nude mice. Depending on the specific tumor type, tumors are typically detectable about two weeks following implantation. When tumor sizes reach ˜100-200 mm^3, the animals with appreciable tumor size and shape are randomly assigned into groups of 8 mice each, including one vehicle control group and treatment groups. Dosing varies depending on the purpose and length of each study, which typically proceeds for about 3-4 weeks. Tumor sizes and body weight are typically measured three times per week. In addition to the determination of tumor size changes, the last tumor measurement is used to generate the tumor size change ratio (T/C value), a standard metric developed by the National Cancer Institute for xenograft tumor evaluation. In most cases, % T/C values are calculated using the following formula: % T/C=100×ΔT/ΔC if ΔT>0. When tumor regression occurred (ΔT<0), however, the following formula is used: % T/T0=100×ΔT/T0. Values of <42% are considered significant.
Ovarian Cancer is the 5th most common cancer in women: ˜ 22,280 new cases and 14,240 death in 2016 in US. In China, Ovarian Cancer has more than 100,000 new cases each year. Gemcitabine (intravenous dosing) is the 2nd line SOC of Ovarian Cancer.

The conditions of series [4]: mice, single oral (gavage) dose of 167, 333, or 500 mg/kg; cited from earlier work.
For series [5] the following is noted: LY2334737 QD, Japanese patients, 2013; cited from earlier work.

Turning to `CCCC(CCC)C(=O)Nc1ccn([C@@H]2O[C@H](COC(=O)C(C)C)[C@@H](OC(=O)[C@@H](N)C(C)C)C2(F)F)c(=O)n1` [Example 2, (2R,3R,5R)-4,4-difluoro-2-[[(2-methylpropanoyl)oxy]methyl]-5-[2-oxo-4-(2-propylpentanamido)-1,2-dihydropyrimidin-1-yl]oxolan-3-yl (2S)-2-amino-3-methylbutanoate], the water solubility entry in series [1] is given as “significant higher water solubility than LY2334737; also recorded: excellent water solubility”. Besides, the “PK linearity of active metabolite Gemcitabine” value in series [2] was “good PK linearity”. Further, in series [3] (A2780 model, Example 2 oral dosing), the “efficacy compared with Gemcitabine (IV dosing)” value was “better efficacy than Gemcitabine (IV dosing)”. In series [3] (75 mg/kg po q4d × 7), the Tumor volume is 65 mm^3.

Take `Nc1ccn([C@@H]2O[C@H](CO)[C@@H](O)C2(F)F)c(=O)n1` [Gemcitabine]: the “adverse dose-limiting intestinal lesions” value in series [4] is “moderate-to-marked loss of mucosal epithelium (atrophic enteropathy)”. Besides, the Tumor volume in series [3] (120 mg/kg IV qw × 4) stood at 442 mm^3.

For `CCCC(CCC)C(=O)Nc1ccn([C@@H]2O[C@H](CO)[C@@H](O)C2(F)F)c(=O)n1` [LY2334737], the hepatic toxicity result in series [5] is on record as “unexpected hepatic toxicities were observed”.
